The source of these data is patent US20260007133A1, “HERBICIDAL COMPOSITION COMPRISING AZINE COMPOUNDS” (BASF SE, priority 2022, published 2026).

Molecules are shown by their SMILES. Read-outs that look alike come from different tables or passages of the source.

Assay type in all cases: in vivo
Assay [1] concerns Ambrosia artemisiifolia. Description: Greenhouse pre-emergence (PRE) herbicidal test on AMBEL.
Assay [2] relates to Alopecurus myosuroides. Description: Greenhouse pre-emergence (PRE) herbicidal test on ALOMY. Particulars: Alopecurus myosuroides, pre-emergence, 480 h. The method in brief: (§1)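 Herbicidal effect was assessed 20 DAT after pre-emergence treatment of sown pots, using a 0-100 scale where 100 means no emergence or destruction of at least the above-ground parts.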
Assay [3] has as its system Euphorbia heterophylla. Description: Greenhouse post-emergence (POST) herbicidal test on EPHHL. The conditions noted are these: Euphorbia heterophylla, post-emergence, 480 h, read-out: solo application % activity. As for the experimental part:
(§2) The culture containers used were plastic pots containing loamy sand with approximately 3.0% of humus as substrate. The seeds of the test plants were sown separately for each species.
(§3) For the post-emergence treatment, the test plants were grown to a plant height of from 3 to 15 cm, depending on the plant habit, and only then treated with the active compounds which had been suspended or emulsified in water. To this end, the test plants were either sown directly, and grown in the same containers, or they were first grown separately as seedlings and transplanted into the test containers a few days prior to treatment.
(§4) Depending on the species, the plants were kept at 10-25° C. and 20-35° C., respectively.
(§5) The test period extended over 2 to 4 weeks. During this time, the plants were tended and their response to the individual treatments was evaluated.
(§6) Evaluation was carried out using a scale from 0 to 100. 100 means no emergence of the plants, or complete destruction of at least the above-ground parts, and 0 means no damage or normal course of growth. A good herbicidal activity is given at values of at least 70, and very good herbicidal activity is given at values of at least 85.
(§7) If not stated differently, the respective components A and B, and if appropriate, C were formulated as a 5% by weight strength emulsion concentrate and, with addition of the amount of solvent system, introduced into the spray liquor used for applying the active compound.
(§8) As indicated application was either post emergent (POST) at the respective growth stage (GS) of the weed (BBCH code), or pre-emergent (PRE). […]

Assay [4] relates to Digitaria sanguinalis. The experiment in a line: Greenhouse post-emergence (POST) herbicidal test on DIGSA. Particulars: Digitaria sanguinalis, post-emergence, 480 h, read-out: solo application % activity. The method in brief:
(§9)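 Weeds grown in loamy sand (~3.0% humus) to 3–15 cm were sprayed post-emergence with compounds suspended or emulsified in water, formulated as 5% emulsion concentrates. Plants were kept at 10-25 °C or 20-35 °C by species. Damage was scored 0–100 (100 = complete destruction) at 20 DAT.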

The test system of assay [5] is Echinochloa crus-galli. Description: Greenhouse post-emergence (POST) herbicidal test on ECHCG. The conditions noted are these: Echinochloa crus-galli, post-emergence, 480 h, read-out: solo application % activity. The essentials:
as §9

Assay [6] concerns Ipomoea hederacea. The experiment in a line: Greenhouse post-emergence (POST) herbicidal test on IPOHE. As for the experimental part: as §2, §3, §4, §5, §6, §7
As indicated application was either post emergent (POST) at the respective growth stage (GS) of the weed (BBCH code), or pre-emergent (PRE).
Assessment was 20 days after treatment (DAT).

Assay [7] deals with Euphorbia heterophylla. Description: Greenhouse pre-emergence (PRE) herbicidal test on EPHHL. Particulars: Euphorbia heterophylla, pre-emergence, 480 h. The method in brief:
as §1

For assay [8], the system named is Setaria viridis. Description: Greenhouse pre-emergence (PRE) herbicidal test on SETVI.
Description: as §2
For the pre-emergence treatment, the active compounds, suspended or emulsified in water, were applied directly after sowing by means of finely distributing nozzles. The containers were irrigated gently to promote germination and growth and subsequently covered with transparent plastic hoods until the plants had rooted. This cover caused uniform germination of the test plants unless this was adversely affected by the active compounds.
as §4, §5, §6, §7, §8

For assay [9], the system named is Abutilon theophrasti. The experiment in a line: Greenhouse post-emergence (POST) herbicidal test on ABUTH. Particulars: Abutilon theophrasti, post-emergence, 480 h. The essentials:
as §9

The subject of assay [10] is Commelina benghalensis. The experiment in a line: Greenhouse pre-emergence (PRE) herbicidal test on COMBE. The conditions noted are these: Commelina benghalensis, pre-emergence, 480 h, read-out: solo application % activity. The method in brief: as §1
Assay [11] concerns Abutilon theophrasti. The experiment in a line: Greenhouse pre-emergence (PRE) herbicidal test on ABUTH. The conditions noted are these: Abutilon theophrasti, pre-emergence, 480 h. The essentials: as §1
For assay [12], the system named is Amaranthus retroflexus. The experiment in a line: Greenhouse post-emergence (POST) herbicidal test on AMARE. The conditions noted are these: Amaranthus retroflexus, post-emergence, 480 h, read-out: solo application % activity. As for the experimental part:
as §2, §3, §4, §5, §6, §7, §8

Assay [13] relates to Geranium pusillum. Description: Greenhouse post-emergence (POST) herbicidal test on GERPU. The conditions noted are these: Geranium pusillum, post-emergence, 480 h, read-out: solo application % activity. The method in brief:
as §9

Assay [14] has as its system Lolium multiflorum. The experiment in a line: Greenhouse pre-emergence (PRE) herbicidal test on LOLMU. The essentials:
as §1

For assay [15], the system named is Echinochloa crus-galli. Description: Greenhouse pre-emergence (PRE) herbicidal test on ECHCG. The conditions noted are these: PRE, ECHCG, use rate 6.25 gai/ha, 20 DAT. As for the experimental part:
as §2
The containers were irrigated gently to promote germination and growth and subsequently covered with transparent plastic hoods until the plants had rooted.
as §4, §5, §6, §8

The mark [16] stands for this setting: Ambrosia artemisiifolia, pre-emergence, 480 h, read-out: solo application % activity.
Where [17] appears, read: read-out: solo application % activity.

On to `CC(C)N1C(=O)c2ccccc2NS1(=O)=O` [Bentazone], for which the inhibition at 240 g/ha was 0% in [1] (Ambrosia artemisiifolia, pre-emergence, 480 h, PRE, AMBEL, use rate 240 gai/ha, 20 DAT, read-out: solo application % activity); 15% in assay [2] (PRE, ALOMY, use rate 240 gai/ha, 20 DAT, read-out: solo application % activity); 0% in assay [3] (POST, EPHHL, use rate 240 gai/ha, 20 DAT); 0% in [4] (POST, DIGSA, use rate 240 gai/ha, 20 DAT); 10% in assay [5] (POST, ECHCG, use rate 240 gai/ha, 20 DAT); 0% in assay [6] (Ipomoea hederacea, post-emergence, 480 h, POST, IPOHE, use rate 240 gai/ha, 20 DAT, read-out: solo application % activity). Further, the inhibition at 240 g/ha in assay [7] (PRE, EPHHL, use rate 240 gai/ha, 20 DAT, read-out: solo application % activity) is 5%; in assay [8] (Setaria viridis, pre-emergence, 480 h, PRE, SETVI, use rate 240 gai/ha, 20 DAT, read-out: solo application % activity), 10%; in assay [10] (PRE, COMBE, use rate 240 gai/ha, 20 DAT), 0%; in assay [11] (PRE, ABUTH, use rate 240 gai/ha, 20 DAT, read-out: solo application % activity), 30%. Further, the inhibition at 480 g/ha came out at 0% in assay [1] (Ambrosia artemisiifolia, pre-emergence, 480 h, PRE, AMBEL, use rate 480 gai/ha, 20 DAT, read-out: solo application % activity); 0% in assay [3] (POST, EPHHL, use rate 480 gai/ha, 20 DAT); 30% in assay [5] (POST, ECHCG, use rate 480 gai/ha, 20 DAT); 5% in assay [7] (PRE, EPHHL, use rate 480 gai/ha, 20 DAT, read-out: solo application % activity); 0% in assay [8] (Setaria viridis, pre-emergence, 480 h, PRE, SETVI, use rate 480 gai/ha, 20 DAT, read-out: solo application % activity); 10% in assay [9] (POST, ABUTH, use rate 480 gai/ha, 20 DAT, read-out: solo application % activity).
Take `CCSC(C)CC1CC(=O)C(/C(CC)=N/OC/C=C/Cl)=C(O)C1` (centres unmarked) [Clethodim, clethodim]: the inhibition at 5 g/ha in assay [1] (setting [16]) was 0%; in assay [2] (setting [17]), 60%; in [3], 0%; in [5], 80%; in assay [12], 0%; in assay [13], 0%. Also, the inhibition at 5 g/ha in [6] (Ipomoea hederacea, post-emergence, 480 h, read-out: solo application % activity) came out at 0%; in assay [7] (setting [17]), 0%; in assay [8] (Setaria viridis, pre-emergence, 480 h, read-out: solo application % activity), 25%; in [10] it was 0%; in assay [11] (setting [17]), 0%; in [14] (Lolium multiflorum, pre-emergence, 480 h, read-out: solo application % activity), 60%. For the same compound, the inhibition at 10 g/ha in assay [1] (setting [16]) is 0%; in assay [2] (setting [17]), 75%; in [3], 0%; in [4] it was 80%; in [12] it was 0%; in assay [13] it was 0%. Besides, the inhibition at 10 g/ha in [7] (setting [17]), in assay [9] (setting [17]) and in assay [10] was 0% each time.
The pest or weed control is the degree to which the test organism was suppressed or injured, in per cent. As for `CCCC(=NOCC)C1=C(O)CC(C2CCCSC2)CC1=O` (centres unmarked) [Cycloxydim, cycloxydim], the inhibition at 5 g/ha was 0% in [1] (Ambrosia artemisiifolia, pre-emergence, 480 h, PRE, AMBEL, use rate 5 gai/ha, 20 DAT, read-out: solo application % activity); 15% in assay [2] (PRE, ALOMY, use rate 5 gai/ha, 20 DAT, read-out: solo application % activity); 0% in [12] (POST, AMARE, use rate 5 gai/ha, 20 DAT); 5% in [13] (POST, GERPU, use rate 5 gai/ha, 20 DAT); 0% in assay [6] (Ipomoea hederacea, post-emergence, 480 h, POST, IPOHE, use rate 5 gai/ha, 20 DAT, read-out: solo application % activity); 5% in assay [7] (PRE, EPHHL, use rate 5 gai/ha, 20 DAT, read-out: solo application % activity). The inhibition at 5 g/ha in assay [9] (POST, ABUTH, use rate 5 gai/ha, 20 DAT, read-out: solo application % activity) is 0%; in [11] (PRE, ABUTH, use rate 5 gai/ha, 20 DAT, read-out: solo application % activity), 0%. Further, the inhibition at 20 g/ha in assay [1] (Ambrosia artemisiifolia, pre-emergence, 480 h, PRE, AMBEL, use rate 20 gai/ha, 20 DAT, read-out: solo application % activity) came out at 0%; in assay [2] (PRE, ALOMY, use rate 20 gai/ha, 20 DAT, read-out: solo application % activity), 60%; in assay [3] (POST, EPHHL, use rate 20 gai/ha, 20 DAT), 0%; in assay [6] (Ipomoea hederacea, post-emergence, 480 h, POST, IPOHE, use rate 20 gai/ha, 20 DAT, read-out: solo application % activity), 0%; in [7] (PRE, EPHHL, use rate 20 gai/ha, 20 DAT, read-out: solo application % activity), 10%; in [9] (POST, ABUTH, use rate 20 gai/ha, 20 DAT, read-out: solo application % activity) it was 0%. The compound further registered a pest or weed control at 20 g/ha in assay [2] (PRE, 20 gai/ha, 20 DAT) of 60%. Further, the pest or weed control at 5 g/ha in assay [6] (Ipomoea hederacea, post-emergence, 480 h, POST, 5 gai/ha, 20 DAT) came out at 0%; in assay [7] (PRE, 5 gai/ha, 20 DAT), 5%; in [9] (POST, 5 gai/ha, 20 DAT) it was 0%; in assay [11] (PRE, 5 gai/ha, 20 DAT), 0%.
For `Cc1c(C(=O)c2cnn(C)c2O)ccc(S(C)(=O)=O)c1C1=NOCC1` [Topramezone, topramezone], the “% activity” value in assay [1] (PRE, AMBEL, use rate 6.25 gai/ha, 20 DAT) came to 0%; in [6] (POST, IPOHE, use rate 3.125 gai/ha, 20 DAT), 15%; in assay [6] (POST, IPOHE, use rate 6.25 gai/ha, 20 DAT), 35%; in assay [15] it was 10%; in assay [8] (PRE, SETVI, use rate 3.125 gai/ha, 20 DAT), 0%; in [14] (PRE, LOLMU, use rate 3.125 gai/ha, 20 DAT), 0%.
